Assay results reported in PubChem BioAssay (NCI).
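GI50 marks 50% less growth. TGI: total growth inhibition.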

Columns and labels:
Test in all cases: NCI tumour cell line growth inhibition, 384-well format
M14 melanoma = test system: M14 melanoma
COLO 205 colon = test system: COLO 205 colon
SK-OV-3 ovarian = test system: SK-OV-3 ovarian
MCF7 breast = test system: MCF7 breast
MDA-MB-231 breast = test system: MDA-MB-231 breast
A498 renal = test system: A498 renal
T-47D breast = test system: T-47D breast
MALME-3M melanoma = test system: MALME-3M melanoma
SN12C renal = test system: SN12C renal
NCI-H226 lung = test system: NCI-H226 lung
OVCAR-8 ovarian = test system: OVCAR-8 ovarian
NCI-H23 lung = test system: NCI-H23 lung
HCC-2998 colon = test system: HCC-2998 colon
IGROV1 ovarian = test system: IGROV1 ovarian
MDA-MB-468 breast = test system: MDA-MB-468 breast
NCI/ADR-RES ovarian = test system: NCI/ADR-RES ovarian
A549 NSCLC = test system: A549 NSCLC
UACC-257 melanoma = test system: UACC-257 melanoma
DU-145 prostate = test system: DU-145 prostate
HOP-62 NSCLC = test system: HOP-62 NSCLC
CCRF-CEM leukemia = test system: CCRF-CEM leukemia
MDA-MB-435 melanoma = test system: MDA-MB-435 melanoma
KM12 colon = test system: KM12 colon
SR leukemia = test system: SR leukemia
SK-MEL-28 melanoma = test system: SK-MEL-28 melanoma
LOX IMVI melanoma = test system: LOX IMVI melanoma
TK-10 renal = test system: TK-10 renal
RPMI-8226 leukemia = test system: RPMI-8226 leukemia
HT29 colon = test system: HT29 colon
HOP-92 NSCLC = test system: HOP-92 NSCLC
BT-549 breast = test system: BT-549 breast
EKVX NSCLC = test system: EKVX NSCLC
SW-620 colon = test system: SW-620 colon
RXF 393 renal = test system: RXF 393 renal
UO-31 renal = test system: UO-31 renal
SNB-19 CNS = test system: SNB-19 CNS
HL-60(TB) leukemia = test system: HL-60(TB) leukemia
NCI-H322M lung = test system: NCI-H322M lung
SF-539 CNS = test system: SF-539 CNS
SNB-75 CNS = test system: SNB-75 CNS
NCI-H522 lung = test system: NCI-H522 lung
U251 glioblastoma = test system: U251 glioblastoma
OVCAR-3 ovarian = test system: OVCAR-3 ovarian
NCI-H460 NSCLC = test system: NCI-H460 NSCLC
SF-295 CNS = test system: SF-295 CNS
SF-268 CNS = test system: SF-268 CNS
K-562 leukemia = test system: K-562 leukemia
SK-MEL-5 melanoma = test system: SK-MEL-5 melanoma
HCT-15 colon = test system: HCT-15 colon
OVCAR-4 ovarian = test system: OVCAR-4 ovarian
HCT-116 colon = test system: HCT-116 colon
ACHN renal = test system: ACHN renal
UACC-62 melanoma = test system: UACC-62 melanoma
HS 578T breast = test system: HS 578T breast
OVCAR-5 ovarian = test system: OVCAR-5 ovarian
CAKI-1 renal = test system: CAKI-1 renal
786-0 renal = test system: 786-0 renal
SK-MEL-2 melanoma = test system: SK-MEL-2 melanoma
MOLT-4 leukemia = test system: MOLT-4 leukemia
PC-3 prostate = test system: PC-3 prostate

Cc1[nH]nc(C(F)(F)F)c1Cc1sc2c(c1C(=O)N1C[C@](C)(O)CO1)c(=O)n(C)c(=O)n2C(C)C
GI50 (M14 melanoma): > 33.7 µM | TGI (M14 melanoma): > 100 µM | GI50 (COLO 205 colon): > 21.8 µM | TGI (COLO 205 colon): > 100 µM | GI50 (SK-OV-3 ovarian): > 100 µM | TGI (SK-OV-3 ovarian): > 100 µM | GI50 (MCF7 breast): > 82.5 µM | TGI (MCF7 breast): > 100 µM | GI50 (MDA-MB-231 breast): > 100 µM | TGI (MDA-MB-231 breast): > 100 µM | GI50 (A498 renal): > 100 µM | TGI (A498 renal): > 100 µM | GI50 (T-47D breast): > 100 µM | TGI (T-47D breast): > 100 µM | GI50 (MALME-3M melanoma): > 77.9 µM | TGI (MALME-3M melanoma): > 100 µM | GI50 (SN12C renal): > 100 µM | TGI (SN12C renal): > 100 µM | GI50 (NCI-H226 lung): > 100 µM | TGI (NCI-H226 lung): > 100 µM | GI50 (OVCAR-8 ovarian): > 22.8 µM | TGI (OVCAR-8 ovarian): > 100 µM | GI50 (NCI-H23 lung): > 27.1 µM | TGI (NCI-H23 lung): > 100 µM | GI50 (HCC-2998 colon): > 100 µM | TGI (HCC-2998 colon): > 100 µM | GI50 (IGROV1 ovarian): > 100 µM | TGI (IGROV1 ovarian): > 100 µM | GI50 (MDA-MB-468 breast): 4.75 µM | TGI (MDA-MB-468 breast): 66.4 µM | GI50 (NCI/ADR-RES ovarian): > 58.7 µM | TGI (NCI/ADR-RES ovarian): > 100 µM | GI50 (A549 NSCLC): > 21.2 µM | TGI (A549 NSCLC): > 100 µM | GI50 (UACC-257 melanoma): > 100 µM | TGI (UACC-257 melanoma): > 100 µM | GI50 (DU-145 prostate): > 30.5 µM | TGI (DU-145 prostate): > 100 µM | GI50 (HOP-62 NSCLC): > 27.3 µM | TGI (HOP-62 NSCLC): > 100 µM | GI50 (CCRF-CEM leukemia): 0.779 µM | GI50 (MDA-MB-435 melanoma): > 69 µM | TGI (MDA-MB-435 melanoma): > 100 µM | GI50 (KM12 colon): > 31.6 µM | TGI (KM12 colon): > 100 µM | GI50 (SR leukemia): > 100 µM | TGI (SR leukemia): > 100 µM | GI50 (SK-MEL-28 melanoma): > 100 µM | TGI (SK-MEL-28 melanoma): > 100 µM | TGI (LOX IMVI melanoma): > 100 µM | GI50 (TK-10 renal): > 100 µM | TGI (TK-10 renal): > 100 µM | GI50 (RPMI-8226 leukemia): 20.9 µM | TGI (RPMI-8226 leukemia): > 86 µM | GI50 (HT29 colon): > 39.6 µM | TGI (HT29 colon): > 100 µM | GI50 (HOP-92 NSCLC): > 100 µM | TGI (HOP-92 NSCLC): > 100 µM | GI50 (BT-549 breast): > 57 µM | TGI (BT-549 breast): > 100 µM | GI50 (EKVX NSCLC): > 100 µM | TGI (EKVX NSCLC): > 100 µM | GI50 (SW-620 colon): > 24.4 µM | TGI (SW-620 colon): > 100 µM | GI50 (RXF 393 renal): > 27.3 µM | TGI (RXF 393 renal): > 100 µM | GI50 (UO-31 renal): 12.9 µM | TGI (UO-31 renal): > 100 µM | GI50 (SNB-19 CNS): > 100 µM | TGI (SNB-19 CNS): > 100 µM | TGI (HL-60(TB) leukemia): > 29.8 µM | GI50 (NCI-H322M lung): > 100 µM | TGI (NCI-H322M lung): > 100 µM | GI50 (SF-539 CNS): > 27 µM | TGI (SF-539 CNS): > 100 µM | GI50 (SNB-75 CNS): > 41.9 µM | TGI (SNB-75 CNS): > 100 µM | GI50 (NCI-H522 lung): 2.15 µM | TGI (NCI-H522 lung): 18.3 µM | GI50 (U251 glioblastoma): > 25 µM | TGI (U251 glioblastoma): > 100 µM | GI50 (OVCAR-3 ovarian): > 29.3 µM | TGI (OVCAR-3 ovarian): > 100 µM | TGI (NCI-H460 NSCLC): > 100 µM | GI50 (SF-295 CNS): > 100 µM | TGI (SF-295 CNS): > 100 µM | TGI (SF-268 CNS): > 29.6 µM | TGI (K-562 leukemia): > 100 µM | TGI (SK-MEL-5 melanoma): > 100 µM | GI50 (HCT-15 colon): 12.2 µM | TGI (HCT-15 colon): > 100 µM | GI50 (OVCAR-4 ovarian): > 100 µM | TGI (OVCAR-4 ovarian): > 100 µM | GI50 (HCT-116 colon): > 24.5 µM | TGI (HCT-116 colon): > 100 µM | GI50 (ACHN renal): > 33.1 µM | TGI (ACHN renal): > 100 µM | TGI (UACC-62 melanoma): > 100 µM | GI50 (HS 578T breast): 8.39 µM | TGI (HS 578T breast): > 100 µM | GI50 (OVCAR-5 ovarian): > 78.6 µM | TGI (OVCAR-5 ovarian): > 100 µM | GI50 (CAKI-1 renal): > 47.6 µM | TGI (CAKI-1 renal): > 80 µM | GI50 ([…]-0 renal): > 26.9 µM | TGI (786-0 renal): > 100 µM | GI50 (SK-MEL-2 melanoma): 39.1 µM | TGI (SK-MEL-2 melanoma): > 100 µM | GI50 (MOLT-4 leukemia): 0.0847 µM | GI50 (PC-3 prostate): > 100 µM | TGI (PC-3 prostate): > 100 µM
